# Reference: PMC8691691 (ACS Chemical Neuroscience, 2021)
# Where a chain is given by its changes, count along the chain named.
# Assays:
# [1] = target: T1, GlyT2 A223C mutant (Rattus norvegicus, UniProt P58295, A223C); assay: MTSEA-biotin labeling of A223C mutant in NaCl or choline chloride, COS7 cells; assay type: cell-based; settings: 1 μM inhibitor; HBS containing NaCl or choline chloride
# T1 construct: expressed in transfected cells; host or cells: COS7
# T1 sequence (P58295 1-799 A223C): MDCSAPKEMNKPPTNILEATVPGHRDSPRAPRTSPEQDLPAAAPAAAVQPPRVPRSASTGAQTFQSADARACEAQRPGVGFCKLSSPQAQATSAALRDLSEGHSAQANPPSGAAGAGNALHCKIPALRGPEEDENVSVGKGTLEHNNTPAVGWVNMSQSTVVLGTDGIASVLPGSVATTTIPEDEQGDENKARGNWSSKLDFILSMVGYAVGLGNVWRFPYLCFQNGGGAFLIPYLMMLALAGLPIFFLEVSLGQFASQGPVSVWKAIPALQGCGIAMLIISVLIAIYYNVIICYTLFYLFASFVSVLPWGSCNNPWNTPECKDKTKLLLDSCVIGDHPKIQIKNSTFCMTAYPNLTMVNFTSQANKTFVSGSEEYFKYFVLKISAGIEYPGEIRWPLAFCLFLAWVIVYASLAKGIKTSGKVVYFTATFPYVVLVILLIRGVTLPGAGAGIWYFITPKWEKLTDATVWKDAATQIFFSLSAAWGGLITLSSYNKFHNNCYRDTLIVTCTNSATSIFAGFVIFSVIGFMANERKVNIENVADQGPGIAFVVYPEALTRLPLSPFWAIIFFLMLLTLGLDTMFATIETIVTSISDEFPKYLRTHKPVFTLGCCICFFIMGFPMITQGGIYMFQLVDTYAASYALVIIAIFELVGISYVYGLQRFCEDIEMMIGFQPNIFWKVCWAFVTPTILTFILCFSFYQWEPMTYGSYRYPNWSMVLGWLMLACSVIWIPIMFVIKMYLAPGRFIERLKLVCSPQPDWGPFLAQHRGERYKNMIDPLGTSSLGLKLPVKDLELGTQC
# Description: Several pieces of evidence were obtained to confirm this prediction (Figure 7). […] A second piece of evidence came from experiments using the […] mutant of GlyT2 that contains an exogenous cysteine in EL1, a region sensitive to the different conformations of the transporter induced by the substrates during the transport cycle.[44] […] Then, the cells were washed and subjected to MTSEA-biotin staining as described above.
# [2] = target: T2, GlyT2 L576I mutant (Rattus norvegicus, UniProt P58295, L576I); assay: [3H]glycine transport by GlyT2 mutant in COS7 cells; assay type: cell-based; settings: for IC50: read-out: IC50 (Table S1)
# T2 construct: expressed in transfected cells; host or cells: COS7
# T2 sequence (P58295 1-799 L576I): T1 sequence (P58295 1-799 A223C) with C223A, L576I
# Description: To validate the predicted interactions between the inhibitors and GlyT2, we used systematic site-directed mutagenesis to construct substitution mutants of the potential residues involved in ligand binding. […] The GlyT2 residues predicted to interact with the inhibitors through its side chain were replaced by amino acids expected to force the loss of the interaction. In the cases where the interaction occurred through the backbone, the inserted amino acid sought to alter the disposition of the substituted residue to lose the coordination.
# Substitution mutants were generated with the QuikChange II Site-Directed Mutagenesis kit (Agilent Technologies, Santa Clara, CA, USA), using rGlyT2 or rGlyT1 subcloned in pCDNA3.[47] The complete coding region of all of the constructs was sequenced to verify that only the desired mutation had been introduced. […] COS7 cells were grown and transfected using Turbofect Transfection Reagent (Thermo Fisher Scientific, Waltham, MA, USA), following the manufacturer’s protocol (2 μL reagent/μg of DNA). Cells were incubated for 48 h at 37 °C until used.
# At the end of the desired time (usually 10 min), reactions were washed and terminated by aspiration. […] A nonlinear curve fitting method was used to obtain IC50 values using Graphpad Prism software, version 6.0, Graphpad, San Diego, CA, USA.
SMILES,"MTSEA-biotin labeling of A223C, sodium dependence [1]","effect of mutation on inhibition of glycine transport ([2]; L576I, 1 μM inhibitor, 25 μM glycine)",IC50 [2]
N[C@@H](COC(c1cccc(F)c1)c1ccccc1OCc1ccccc1)C(=O)O (some centres unmarked) [ALX1393],abolished the label in NaCl but left it intact in choline chloride,prevented the inhibition by ALX1393 to a greater extent than that of ORG25543,101 ± 22 nM
"COc1cc(C(=O)NCC2(N(C)C)CCCC2)cc(OC)c1OCc1ccccc1 [ORG25543, N-[[1-(dimethylamino)cyclopentyl]methyl]-3,5-dimethoxy-4-(phenylmethoxy)benzamide]",protects the labeling independently of the cation present in the buffer,–,111 ± 15 nM
